Laboratory results reported in US20230123334A1, “AMINO LIPID COMPOUND, PREPARATION METHOD THEREFOR, AND APPLICATION THEREOF” (SHENZHEN SHENXIN BIOTECHNOLOGY CO., LTD., priority 2020, published 2023).

The compounds below were run on HEK293 cells (assay: Preliminary screening as DNA vectors, GFP transfection of HEK293 cells). Conditions: HEK293 cells; lipid/DOPE liposome with 75 ng plasmid DNA (psin-EGFP-IRES-Puro); number of cells expressing GFP divided by total number of nuclei (Hoechst).
Type: cell-based
Outline: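 Lipid + DOPE liposomes (NaOAc, pH 5.6) complexed w/ 75 ng psin-EGFP-IRES-Puro, 30 min RT; added to 3-5×10^4 HEK293/well, 37° C. Hoechst 0.2 μg/mL at 20-24 h, imaged after further 20-24 h. Efficiency = GFP+ cells / total nuclei.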

Structure (SMILES) | Absolute DNA transfection efficiency in HEK293 cells [%]
CCCCCCCCCCCCCCCCCCSc1nc(NCCN(CC)CC)nc(SCCCCCCCCCC)n1 [Compound S10S18D7] | 9.2
CCCCCCCCCCCCCCCCCCSc1nc(NCCCN2CCOCC2)nc(SCCCCCCCCCC)n1 [Compound S10S18D8] | 13.7
CCCCCCCCCCCCCCCCCCSc1nc(NCCCN2CCN(C)CC2)nc(SCCCCCCCCCC)n1 [Compound S10S18D9] | 6.5
CCCCCCCCCCCCCCCCCCSc1nc(NCC2CCN(C)CC2)nc(SCCCCCCCCCC)n1 [Compound S10S18D10] | 43.1
CCCCCCCCCCCSc1nc(NCCN(C)C)nc(SCCCCCCCCCCC)n1 [Compound S11S11D1] | 1.3
CCCCCCCCCCCSc1nc(NCCN2CCOCC2)nc(SCCCCCCCCCCC)n1 [Compound S11S11D2] | 0.2
CCCCCCCCCCCSc1nc(NCCN2CCCC2)nc(SCCCCCCCCCCC)n1 [Compound S11S11D3] | 6.5
CCCCCCCCCCCSc1nc(NCCN2CCCCC2)nc(SCCCCCCCCCCC)n1 [Compound S11S11D4] | 4.0
CCCCCCCCCCCSc1nc(NCCN2CCN(C)CC2)nc(SCCCCCCCCCCC)n1 [Compound S11S11D5] | 3.4
CCCCCCCCCCCSc1nc(NCCCN(C)C)nc(SCCCCCCCCCCC)n1 [Compound S11S11D6] | 10.9
CCCCCCCCCCCSc1nc(NCCN(CC)CC)nc(SCCCCCCCCCCC)n1 [Compound S11S11D7] | 0.0
CCCCCCCCCCCSc1nc(NCCCN2CCOCC2)nc(SCCCCCCCCCCC)n1 [Compound S11S11D8] | 3.6
CCCCCCCCCCCSc1nc(NCCCN2CCN(C)CC2)nc(SCCCCCCCCCCC)n1 [Compound S11S11D9] | 4.3
CCCCCCCCCCCSc1nc(NCC2CCN(C)CC2)nc(SCCCCCCCCCCC)n1 [Compound S11S11D10] | 12.2
CCCCCCCCCCCCSc1nc(NCCN(C)C)nc(SCCCCCCCCCCC)n1 [Compound S11S12D1] | 2.3
CCCCCCCCCCCCSc1nc(NCCN2CCOCC2)nc(SCCCCCCCCCCC)n1 [Compound S11S12D2] | 0.1
CCCCCCCCCCCCSc1nc(NCCN2CCCC2)nc(SCCCCCCCCCCC)n1 [Compound S11S12D3] | 5.4
CCCCCCCCCCCCSc1nc(NCCN2CCCCC2)nc(SCCCCCCCCCCC)n1 [Compound S11S12D4] | 5.6
CCCCCCCCCCCCSc1nc(NCCN2CCN(C)CC2)nc(SCCCCCCCCCCC)n1 [Compound S11S12D5] | 2.8
CCCCCCCCCCCCSc1nc(NCCCN(C)C)nc(SCCCCCCCCCCC)n1 [Compound S11S12D6] | 5.2
CCCCCCCCCCCCSc1nc(NCCN(CC)CC)nc(SCCCCCCCCCCC)n1 [Compound S11S12D7] | 3.1

Structure (SMILES) | Absolute DNA transfection efficiency in HEK293 cells [%]
CCCCCCCCCCCCSc1nc(NCCCN2CCN(C)CC2)nc(SCCCCCCCCCCC)n1 [Compound S11S12D9] | 2.4
CCCCCCCCCCCCSc1nc(NCC2CCN(C)CC2)nc(SCCCCCCCCCCC)n1 [Compound S11S12D10] | 4.8
CCCCCCCCCCCCCCSc1nc(NCCN(C)C)nc(SCCCCCCCCCCC)n1 [Compound S11S14D1] | 2.0
CCCCCCCCCCCCCCSc1nc(NCCN2CCOCC2)nc(SCCCCCCCCCCC)n1 [Compound S11S14D2] | 0.7
CCCCCCCCCCCCCCSc1nc(NCCN2CCCC2)nc(SCCCCCCCCCCC)n1 [Compound S11S14D3] | 6.7
CCCCCCCCCCCCCCSc1nc(NCCN2CCCCC2)nc(SCCCCCCCCCCC)n1 [Compound S11S14D4] | 3.7
CCCCCCCCCCCCCCSc1nc(NCCN2CCN(C)CC2)nc(SCCCCCCCCCCC)n1 [Compound S11S14D5] | 5.1
CCCCCCCCCCCCCCSc1nc(NCCCN(C)C)nc(SCCCCCCCCCCC)n1 [Compound S11S14D6] | 6.6
CCCCCCCCCCCCCCSc1nc(NCCN(CC)CC)nc(SCCCCCCCCCCC)n1 [Compound S11S14D7] | 2.9
CCCCCCCCCCCCCCSc1nc(NCCCN2CCOCC2)nc(SCCCCCCCCCCC)n1 [Compound S11S14D8] | 8.8
CCCCCCCCCCCCCCSc1nc(NCCCN2CCN(C)CC2)nc(SCCCCCCCCCCC)n1 [Compound S11S14D9] | 4.1
CCCCCCCCCCCCCCSc1nc(NCC2CCN(C)CC2)nc(SCCCCCCCCCCC)n1 [Compound S11S14D10] | 58.1
CCCCCCCCCCCCCCCSc1nc(NCCN(C)C)nc(SCCCCCCCCCCC)n1 [Compound S11S15D1] | 0.9
CCCCCCCCCCCCCCCSc1nc(NCCN2CCOCC2)nc(SCCCCCCCCCCC)n1 [Compound S11S15D2] | 0.3
CCCCCCCCCCCCCCCSc1nc(NCCN2CCCC2)nc(SCCCCCCCCCCC)n1 [Compound S11S15D3] | 7.4
CCCCCCCCCCCCCCCSc1nc(NCCN2CCCCC2)nc(SCCCCCCCCCCC)n1 [Compound S11S15D4] | 5.3
CCCCCCCCCCCCCCCSc1nc(NCCN2CCN(C)CC2)nc(SCCCCCCCCCCC)n1 [Compound S11S15D5] | 4.8
CCCCCCCCCCCCCCCSc1nc(NCCCN(C)C)nc(SCCCCCCCCCCC)n1 [Compound S11S15D6] | 4.8
CCCCCCCCCCCCCCCSc1nc(NCCN(CC)CC)nc(SCCCCCCCCCCC)n1 [Compound S11S15D7] | 5.3
CCCCCCCCCCCCCCCSc1nc(NCCCN2CCOCC2)nc(SCCCCCCCCCCC)n1 [Compound S11S15D8] | 3.0
CCCCCCCCCCCCCCCSc1nc(NCCCN2CCN(C)CC2)nc(SCCCCCCCCCCC)n1 [Compound S11S15D9] | 1.8

These compounds were tested on HEK293 cells (assay: Preliminary screening as mRNA vectors, EGFP mRNA transfection of HEK293 cells). Conditions: HEK293 cells, 96-well plates, EGFP mRNA 50 ng per well; percentage of GFP fluorescent cells relative to total number of cells (Hoechst).
Type: cell-based
Outline: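 Each well of HEK293 cells received 50 ng of EGFP mRNA. Efficiency was expressed as percent GFP-expressing cells over Hoechst-defined total cell number.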

Structure (SMILES) | Absolute mRNA transfection efficiency in HEK293 cells [%]
CCCCCCCCCCCCCCCCCCSc1nc(NCCN(CC)CC)nc(SCCCCCCCCCC)n1 [Compound S10S18D7] | 0.3
CCCCCCCCCCCCCCCCCCSc1nc(NCCCN2CCOCC2)nc(SCCCCCCCCCC)n1 [Compound S10S18D8] | 8.0
CCCCCCCCCCCCCCCCCCSc1nc(NCCCN2CCN(C)CC2)nc(SCCCCCCCCCC)n1 [Compound S10S18D9] | 2.4
CCCCCCCCCCCCCCCCCCSc1nc(NCC2CCN(C)CC2)nc(SCCCCCCCCCC)n1 [Compound S10S18D10] | 54.6
CCCCCCCCCCCSc1nc(NCCN(C)C)nc(SCCCCCCCCCCC)n1 [Compound S11S11D1] | 12.9
CCCCCCCCCCCSc1nc(NCCN2CCOCC2)nc(SCCCCCCCCCCC)n1 [Compound S11S11D2] | 0.0
CCCCCCCCCCCSc1nc(NCCN2CCCC2)nc(SCCCCCCCCCCC)n1 [Compound S11S11D3] | 3.6
CCCCCCCCCCCSc1nc(NCCN2CCCCC2)nc(SCCCCCCCCCCC)n1 [Compound S11S11D4] | 0.4
CCCCCCCCCCCSc1nc(NCCN2CCN(C)CC2)nc(SCCCCCCCCCCC)n1 [Compound S11S11D5] | 28.7
CCCCCCCCCCCSc1nc(NCCCN(C)C)nc(SCCCCCCCCCCC)n1 [Compound S11S11D6] | 25.4
CCCCCCCCCCCSc1nc(NCCN(CC)CC)nc(SCCCCCCCCCCC)n1 [Compound S11S11D7] | 0.0
CCCCCCCCCCCSc1nc(NCCCN2CCOCC2)nc(SCCCCCCCCCCC)n1 [Compound S11S11D8] | 1.4
CCCCCCCCCCCSc1nc(NCCCN2CCN(C)CC2)nc(SCCCCCCCCCCC)n1 [Compound S11S11D9] | 8.0
CCCCCCCCCCCSc1nc(NCC2CCN(C)CC2)nc(SCCCCCCCCCCC)n1 [Compound S11S11D10] | 13.7
CCCCCCCCCCCCSc1nc(NCCN(C)C)nc(SCCCCCCCCCCC)n1 [Compound S11S12D1] | 4.7
CCCCCCCCCCCCSc1nc(NCCN2CCOCC2)nc(SCCCCCCCCCCC)n1 [Compound S11S12D2] | 0.0
CCCCCCCCCCCCSc1nc(NCCN2CCCC2)nc(SCCCCCCCCCCC)n1 [Compound S11S12D3] | 3.2
CCCCCCCCCCCCSc1nc(NCCN2CCCCC2)nc(SCCCCCCCCCCC)n1 [Compound S11S12D4] | 0.4
CCCCCCCCCCCCSc1nc(NCCN2CCN(C)CC2)nc(SCCCCCCCCCCC)n1 [Compound S11S12D5] | 9.2
CCCCCCCCCCCCSc1nc(NCCCN(C)C)nc(SCCCCCCCCCCC)n1 [Compound S11S12D6] | 21.5
CCCCCCCCCCCCSc1nc(NCCN(CC)CC)nc(SCCCCCCCCCCC)n1 [Compound S11S12D7] | 0.4

Structure (SMILES) | Absolute mRNA transfection efficiency in HEK293 cells [%]
CCCCCCCCCCCCSc1nc(NCCCN2CCN(C)CC2)nc(SCCCCCCCCCCC)n1 [Compound S11S12D9] | 4.2
CCCCCCCCCCCCSc1nc(NCC2CCN(C)CC2)nc(SCCCCCCCCCCC)n1 [Compound S11S12D10] | 10.5
CCCCCCCCCCCCCCSc1nc(NCCN(C)C)nc(SCCCCCCCCCCC)n1 [Compound S11S14D1] | 1.9
CCCCCCCCCCCCCCSc1nc(NCCN2CCOCC2)nc(SCCCCCCCCCCC)n1 [Compound S11S14D2] | 0.0
CCCCCCCCCCCCCCSc1nc(NCCN2CCCC2)nc(SCCCCCCCCCCC)n1 [Compound S11S14D3] | 17.9
CCCCCCCCCCCCCCSc1nc(NCCN2CCCCC2)nc(SCCCCCCCCCCC)n1 [Compound S11S14D4] | 0.2
CCCCCCCCCCCCCCSc1nc(NCCN2CCN(C)CC2)nc(SCCCCCCCCCCC)n1 [Compound S11S14D5] | 9.1
CCCCCCCCCCCCCCSc1nc(NCCCN(C)C)nc(SCCCCCCCCCCC)n1 [Compound S11S14D6] | 30.0
CCCCCCCCCCCCCCSc1nc(NCCN(CC)CC)nc(SCCCCCCCCCCC)n1 [Compound S11S14D7] | 0.7
CCCCCCCCCCCCCCSc1nc(NCCCN2CCOCC2)nc(SCCCCCCCCCCC)n1 [Compound S11S14D8] | 4.2
CCCCCCCCCCCCCCSc1nc(NCCCN2CCN(C)CC2)nc(SCCCCCCCCCCC)n1 [Compound S11S14D9] | 9.9
CCCCCCCCCCCCCCSc1nc(NCC2CCN(C)CC2)nc(SCCCCCCCCCCC)n1 [Compound S11S14D10] | 38.5
CCCCCCCCCCCCCCCSc1nc(NCCN(C)C)nc(SCCCCCCCCCCC)n1 [Compound S11S15D1] | 0.0
CCCCCCCCCCCCCCCSc1nc(NCCN2CCOCC2)nc(SCCCCCCCCCCC)n1 [Compound S11S15D2] | 0.0
CCCCCCCCCCCCCCCSc1nc(NCCN2CCCC2)nc(SCCCCCCCCCCC)n1 [Compound S11S15D3] | 5.3
CCCCCCCCCCCCCCCSc1nc(NCCN2CCCCC2)nc(SCCCCCCCCCCC)n1 [Compound S11S15D4] | 0.9
CCCCCCCCCCCCCCCSc1nc(NCCN2CCN(C)CC2)nc(SCCCCCCCCCCC)n1 [Compound S11S15D5] | 17.4
CCCCCCCCCCCCCCCSc1nc(NCCCN(C)C)nc(SCCCCCCCCCCC)n1 [Compound S11S15D6] | 15.4
CCCCCCCCCCCCCCCSc1nc(NCCN(CC)CC)nc(SCCCCCCCCCCC)n1 [Compound S11S15D7] | 0.7
CCCCCCCCCCCCCCCSc1nc(NCCCN2CCOCC2)nc(SCCCCCCCCCCC)n1 [Compound S11S15D8] | 2.1
CCCCCCCCCCCCCCCSc1nc(NCCCN2CCN(C)CC2)nc(SCCCCCCCCCCC)n1 [Compound S11S15D9] | 3.6
